{
  "source": "ChEMBL document CHEMBL3608269",
  "about": "“Triazole-Linked Glycolipids Enhance the Susceptibility of MRSA to β-Lactam Antibiotics” (ACS Med Chem Lett, 2015)",
  "key": {"[1]": {"test_system": "Staphylococcus aureus", "assay": "Potentiation of cefepime mediated antibacterial activity against methicillin-resistant Staphylococcus aureus ATCC 43300 assessed as decrease in cefepime MIC at 32 ug/ml by checkerboard method relative to control", "assay_type": "functional"}, "[2]": {"test_system": "Staphylococcus aureus", "assay": "Potentiation of oxacillin-mediated antibacterial activity against methicillin-resistant Staphylococcus aureus R15 clinical isolate assessed as decrease in oxacillin MIC at 32 ug/ml after 20 to 24 hrs by CLSI method relative to control", "assay_type": "functional"}, "[3]": {"test_system": "Staphylococcus aureus", "assay": "Potentiation of cephazolin-mediated antibacterial activity against methicillin-resistant Staphylococcus aureus ATCC 43300 assessed as decrease in cephazolin MIC at 32 ug/ml by checkerboard method relative to control", "assay_type": "functional"}, "[4]": {"test_system": "Staphylococcus aureus", "assay": "Potentiation of cefuroxime mediated antibacterial activity against methicillin-resistant Staphylococcus aureus ATCC 43300 assessed as decrease in cefuroxime MIC at 32 ug/ml by checkerboard method relative to control", "assay_type": "functional"}, "[5]": {"test_system": "Staphylococcus aureus", "assay": "Potentiation of oxacillin-mediated antibacterial activity against methicillin-resistant Staphylococcus aureus R16 clinical isolate assessed as decrease in oxacillin MIC at 32 ug/ml after 20 to 24 hrs by CLSI method relative to control", "assay_type": "functional"}, "[6]": {"test_system": "Staphylococcus aureus", "assay": "Potentiation of oxacillin-mediated antibacterial activity against methicillin-resistant Staphylococcus aureus R36 clinical isolate assessed as decrease in oxacillin MIC at 32 ug/ml after 20 to 24 hrs by CLSI method relative to control", "assay_type": "functional"}, "[7]": {"test_system": "Staphylococcus aureus", "assay": "Potentiation of oxacillin-mediated antibacterial activity against methicillin-resistant Staphylococcus aureus R308 clinical isolate at 32 ug/ml after 20 to 24 hrs by CLSI method", "assay_type": "functional"}, "[8]": {"test_system": "Staphylococcus aureus", "assay": "Potentiation of ceftazidime mediated antibacterial activity against methicillin-resistant Staphylococcus aureus ATCC 43300 assessed as decrease in ceftazidime MIC at 32 ug/ml by checkerboard method relative to control", "assay_type": "functional"}, "[9]": {"test_system": "Staphylococcus aureus", "assay": "Potentiation of oxacillin-mediated antibacterial activity against methicillin-resistant Staphylococcus aureus R313 clinical isolate at 32 ug/ml after 20 to 24 hrs by CLSI method", "assay_type": "functional"}, "[10]": {"test_system": "Staphylococcus aureus", "assay": "Potentiation of oxacillin-mediated antibacterial activity against methicillin-resistant Staphylococcus aureus R306 clinical isolate at 32 ug/ml after 20 to 24 hrs by CLSI method", "assay_type": "functional"}, "[11]": {"test_system": "Staphylococcus aureus", "assay": "Potentiation of oxacillin-mediated antibacterial activity against methicillin-resistant Staphylococcus aureus R302 clinical isolate assessed as decrease in oxacillin MIC at 32 ug/ml after 20 to 24 hrs by CLSI method relative to control", "assay_type": "functional"}, "[12]": {"test_system": "HEK293", "assay": "Cytotoxicity against HEK293 cells assessed as cell viability at 8 to 128 ug/ml by MTS assay", "assay_type": "cell-based", "conditions": "human"}, "[13]": {"test_system": "Staphylococcus aureus", "assay": "Potentiation of cephalothin-mediated antibacterial activity against methicillin-resistant Staphylococcus aureus ATCC 43300 assessed as decrease in cephalothin MIC at 32 ug/ml by checkerboard method relative to control", "assay_type": "functional"}, "[14]": {"test_system": "Staphylococcus aureus", "assay": "Potentiation of oxacillin-mediated antibacterial activity against methicillin-resistant Staphylococcus aureus R50 clinical isolate at 16 ug/ml after 20 to 24 hrs by CLSI method", "assay_type": "functional"}, "[15]": {"test_system": "Staphylococcus aureus", "assay": "Potentiation of oxacillin-mediated antibacterial activity against methicillin-resistant Staphylococcus aureus R304 clinical isolate at 32 ug/ml after 20 to 24 hrs by CLSI method", "assay_type": "functional"}, "[16]": {"test_system": "Staphylococcus aureus", "assay": "Potentiation of oxacillin-mediated antibacterial activity against methicillin-resistant Staphylococcus aureus ATCC 43300 assessed as growth inhibition at 32 ug/ml after 24 hrs by epsilometer test", "assay_type": "functional, organism-based"}, "[17]": {"test_system": "Staphylococcus aureus", "assay": "Antibacterial activity against methicillin-resistant Staphylococcus aureus ATCC 43300 assessed as growth inhibition at 32 ug/ml measured up to 24 hrs by time kill assay", "assay_type": "functional, organism-based"}, "[18]": {"test_system": "Staphylococcus aureus", "assay": "Potentiation of cephalexin-mediated antibacterial activity against methicillin-resistant Staphylococcus aureus ATCC 43300 assessed as decrease in cephalexin MIC at 32 ug/ml by checkerboard method relative to control", "assay_type": "functional"}, "[19]": {"test_system": "Staphylococcus aureus", "assay": "Potentiation of oxacillin-mediated antibacterial activity against methicillin-resistant Staphylococcus aureus R306 clinical isolate assessed as decrease in oxacillin MIC at 32 ug/ml after 20 to 24 hrs by CLSI method relative to control", "assay_type": "functional"}, "[20]": {"test_system": "Staphylococcus aureus", "assay": "Potentiation of oxacillin-mediated antibacterial activity against methicillin-resistant Staphylococcus aureus R314 clinical isolate at 32 ug/ml after 20 to 24 hrs by CLSI method", "assay_type": "functional"}, "[21]": {"test_system": "Staphylococcus aureus", "assay": "Downregulation of mecA mRNA expression in methicillin-resistant Staphylococcus aureus ATCC 43300 at 32 ug/ml after 4 hrs by RT-PCR analysis", "assay_type": "functional, organism-based"}, "[22]": {"test_system": "Staphylococcus aureus", "assay": "Potentiation of oxacillin-mediated antibacterial activity against methicillin-resistant Staphylococcus aureus R308 clinical isolate assessed as decrease in oxacillin MIC at 32 ug/ml after 20 to 24 hrs by CLSI method relative to control", "assay_type": "functional"}, "[23]": {"test_system": "Staphylococcus aureus", "assay": "Potentiation of penicillin-mediated antibacterial activity against methicillin-resistant Staphylococcus aureus ATCC 43300 assessed as decrease in penicillin MIC at 32 ug/ml by checkerboard method relative to control", "assay_type": "functional"}, "[24]": {"test_system": "Staphylococcus aureus", "assay": "Antibacterial activity against methicillin-resistant Staphylococcus aureus ATCC 43300 assessed as change in bacterial surface at 32 ug/ml after 4 hrs by scanning electron microscopic analysis", "assay_type": "functional, organism-based"}, "[25]": {"test_system": "Staphylococcus aureus", "assay": "Downregulation of mecA mRNA expression in methicillin-resistant Staphylococcus aureus ATCC 43300 at 32 ug/ml after 4 hrs by RT-PCR analysis in presence of oxacillin", "assay_type": "functional, organism-based"}, "[26]": {"test_system": "Staphylococcus aureus", "assay": "Potentiation of oxacillin-mediated antibacterial activity against methicillin-resistant Staphylococcus aureus R53 clinical isolate assessed as decrease in oxacillin MIC at 16 ug/ml after 20 to 24 hrs by CLSI method relative to control", "assay_type": "functional"}, "[27]": {"test_system": "Staphylococcus aureus", "assay": "Antibacterial activity against methicillin-resistant Staphylococcus aureus ATCC 43300 after 20 to 24 hrs by CLSI method", "assay_type": "functional"}, "[28]": {"test_system": "Staphylococcus aureus", "assay": "Potentiation of oxacillin-mediated antibacterial activity against methicillin-resistant Staphylococcus aureus ATCC 43300 assessed as growth inhibition at 32 ug/ml measured within 6 hrs by time kill assay", "assay_type": "functional, organism-based"}, "[29]": {"test_system": "Staphylococcus aureus", "assay": "Potentiation of oxacillin-mediated antibacterial activity against methicillin-resistant Staphylococcus aureus R50 clinical isolate assessed as decrease in oxacillin MIC at 16 ug/ml after 20 to 24 hrs by CLSI method relative to control", "assay_type": "functional"}, "[30]": {"test_system": "Staphylococcus aureus", "assay": "Potentiation of oxacillin-mediated antibacterial activity against methicillin-resistant Staphylococcus aureus R49 clinical isolate at 16 ug/ml after 20 to 24 hrs by CLSI method", "assay_type": "functional"}, "[31]": {"test_system": "Staphylococcus aureus", "assay": "Potentiation of cephamandole-mediated antibacterial activity against methicillin-resistant Staphylococcus aureus ATCC 43300 assessed as decrease in cephamandole MIC at 32 ug/ml by checkerboard method relative to control", "assay_type": "functional"}, "[32]": {"test_system": "Staphylococcus aureus", "assay": "Potentiation of oxacillin-mediated antibacterial activity against methicillin-resistant Staphylococcus aureus ATCC 43300 assessed as appearance of rougher bacterial surface at 32 ug/ml after 4 hrs by scanning electron microscopic analysis", "assay_type": "functional, organism-based"}, "[33]": {"test_system": "Staphylococcus aureus", "assay": "Potentiation of carbenicillin-mediated antibacterial activity against methicillin-resistant Staphylococcus aureus ATCC 43300 assessed as decrease in carbenicillin MIC at 32 ug/ml by checkerboard method relative to control", "assay_type": "functional"}},
  "note": "Calls of active or inactive are those of the source. The calls are words filed in the database; no cut-off is given here.",
  "data": [
    {"smiles": "CCCCCCCCCCCCOCc1cn([C@@H]2O[C@H](CO)[C@@H](O)[C@H](O)[C@H]2O)nn1", "values": [
      {"measurement": "fold change (FC)", "setting": "[1]", "value": "<=256"},
      {"measurement": "MIC", "setting": "[2]", "value": 2, "unit": "µg/mL"},
      {"measurement": "fold change (FC)", "setting": "[3]", "value": "<=256"},
      {"measurement": "fold change (FC)", "setting": "[4]", "value": "<=256"},
      {"measurement": "MIC", "setting": "[5]", "value": 4, "unit": "µg/mL"},
      {"measurement": "MIC", "setting": "[6]", "value": 8, "unit": "µg/mL"},
      {"measurement": "MIC", "setting": "[7]", "value": 256, "unit": "µg/mL"},
      {"measurement": "fold change (FC)", "setting": "[8]", "value": "<=256"},
      {"measurement": "MIC", "setting": "[9]", "value": 8, "unit": "µg/mL"},
      {"measurement": "MIC", "setting": "[10]", "value": 32, "unit": "µg/mL"},
      {"measurement": "MIC", "setting": "[11]", "value": 4, "unit": "µg/mL"},
      {"measurement": "Activity", "setting": "[12]", "value": "Non-toxic"},
      {"measurement": "fold change (FC)", "setting": "[13]", "value": "<=256"},
      {"measurement": "MIC", "setting": "[14]", "value": "< 1", "unit": "µg/mL"},
      {"measurement": "MIC", "setting": "[15]", "value": 256, "unit": "µg/mL"},
      {"measurement": "growth inhibition (GI)", "setting": "[16]", "value": "Active"},
      {"measurement": "growth inhibition (GI)", "setting": "[17]", "value": "inactive"},
      {"measurement": "fold change (FC)", "setting": "[18]", "value": "<=256"},
      {"measurement": "MIC", "setting": "[19]", "value": 16, "unit": "µg/mL"},
      {"measurement": "MIC", "setting": "[20]", "value": 16, "unit": "µg/mL"},
      {"measurement": "Activity", "setting": "[21]", "value": "Active"},
      {"measurement": "MIC", "setting": "[22]", "value": 4, "unit": "µg/mL"},
      {"measurement": "fold change (FC)", "setting": "[23]", "value": "<=256"},
      {"measurement": "Activity", "setting": "[24]", "value": "inactive"},
      {"measurement": "Activity", "setting": "[25]", "value": "Active"},
      {"measurement": "MIC", "setting": "[26]", "value": 8, "unit": "µg/mL"},
      {"measurement": "MIC", "setting": "[27]", "value": 256, "unit": "µg/mL"},
      {"measurement": "growth inhibition (GI)", "setting": "[28]", "value": "Active"},
      {"measurement": "MIC", "setting": "[29]", "value": 8, "unit": "µg/mL"},
      {"measurement": "MIC", "setting": "[30]", "value": "< 1", "unit": "µg/mL"},
      {"measurement": "fold change (FC)", "setting": "[31]", "value": "<=256"},
      {"measurement": "Activity", "setting": "[32]", "value": "Active"},
      {"measurement": "fold change (FC)", "setting": "[33]", "value": "<=256"}
    ]}
  ]
}
